Source: US10081662B2, “Modified relaxin B chain peptides” (The Florey Institute of Neuroscience and Mental Health, priority 2014, dated 2018)
Peptide text beside a SMILES is read from it.

Test system: MMP-2
Assay: MMP-2 expression by gelatin zymography in rat renal myofibroblasts
Type: cell-based
Details: 16.80 nM, gelatin zymography and densitometry
Method: Renal myofibroblast cells natively expressing human RXFP1 were plated out onto 12-well plates with a density of 50 000 cells per well. Cells were treated with 16.8 nM H2-relaxin and 16.80 nM B7-33 C11.23S. Expression of basal MMP-2 levels was monitored with no treatment applied to wells (control). Each treatment was carried out in duplicates (n=5), for each replicate in Dulbecco's modified Eagle's medium (DMEM) containing 10% fetal calf serum, 2.2% HEPES buffer, 1% L-glutamine and 2% penicillin/strepticillin. The cells were incubated over 48 hrs in a humidified chamber with 5% CO2 at 37.8° C. temperature. Following this, media was aspirated off and experiment continued in serum free media (DMEM containing 2.2% HEPES buffer, 1% L-glutamine, 2% penicillin/strepicillin and 2% lactalbumin hydrolysate) for a further 24 hours in a humidified chamber with 5% CO2 at 37.8° C. […]. Media were then collected from various treatments and gel zymography was carried out.
For determination of MMP-2 expression within various treatments, zymographic assays of gelatinases were carried out. […] (0.05M Tris-HCl pH 7.4, 0.01M CaCl2, 5% Triton X-100, 0.02% sodium azide, 1 μM ZnCl2. The gels were then stained with 0.1% Cootnassie blue containing 40% 2-propanol and destained with 7% acetic acid before analysed by ImageJ software.

SMILES: CC[C@H](C)[C@H](NC(=O)[C@H](C)NC(=O)[C@@H](NC(=O)[C@H](CCC(N)=O)NC(=O)[C@H](C)NC(=O)[C@H](CCCNC(=N)N)NC(=O)[C@@H](NC(=O)[C@H](CC(C)C)NC(=O)[C@H](CCC(=O)O)NC(=O)[C@H](CCCNC(=N)N)NC(=O)CNC(=O)[C@H](CO)NC(=O)[C@H](CC(C)C)NC(=O)[C@H](CCCCN)NC(=O)[C@@H](NC(=O)[C@@H](N)C(C)C)[C@@H](C)CC)C(C)C)[C@@H](C)CC)C(=O)N[C@@H](CO)C(=O)NCC(=O)N[C@@H](CCSC)C(=O)N[C@@H](CO)C(=O)N[C@H](C(=O)N[C@@H](Cc1c[nH]c2ccccc12)C(=O)N[C@@H](CO)C(=O)N[C@@H](CCCCN)C(=O)N[C@@H](CCCNC(=N)N)C(=O)N[C@@H](CO)C(=O)N[C@@H](CC(C)C)C(N)=O)[C@@H](C)O [B7-33 C11.23S] (H-VIKLSGRELVRAQIAISGMSTWSKRSL-NH2)
- Induction of MMP-2 expression: levels similar to those induced by the native H2 relaxin
